Test [1] has as its system vacuolar H+ pump. Nature of the test: Golgi lumenal pH time course with Golgi-targeted phOx-fluorescein. It is filed as cell-based. The settings on record: 100 nM, Golgi pH initially ~6.3, individual cells. The method, then: Cells were labeled at two days after transfection, with phOx-fluorophore conjugates by incubation with low concentrations (<100 nM) of the conjugates. […] Images were recorded at room temperature on a K2 BIO microscope (Technical Instruments) equipped with a 60× PlanApo objective (Nikon, N. A. 1.4), coaxial-confocal attachment, and cooled CCD camera (Photometrics). Dual-excitation ratio images of fluorescein were acquired using 440 and 490 nm excitation filters and a 520 nm long pass emission filter (Chroma). Continuous recordings of the fluorescence time course were obtained on a Nikon Diaphot epifluorescence microscope equipped with a 100× PlanApo objective (Nikon, N. A. 1.4), a photomultiplier using a 530 nm bandpass emission filter and an optical filter changer (Model 10-C, Sutter Instrument Co.) containing 440 and 490 nm excitation filters. Cuvette fluorescence measurements were conducted on an SLM 8000c fluorometer (SLM Aminco). Spectra were recorded with 4 nm slit widths; time courses were acquired with 495 nm excitation and a […] longpass emission filter.
Organelle-specific sFv targeting was applied to measure Golgi pH using phOx-fluorescein as the probe. […] The dependence of the fluorescence ratio on pH was measured for Golgi and plasma membrane-expressed sFv (FIG. 4A). […]

Test [2] concerns CHO cells expressing targeted sFv. The experiment in a line: Site-specific fluorescent labeling of living CHO cells expressing targeted sFv. Format: cell-based. The conditions noted are these: addition of 1 μM.
Protocol: CHO cells (ATCC CRL 9618) were transfected with plasmids encoding targeted sFv using lipofectamine (Gibco) as is known in the art.
Cells were labeled at two days after transfection, with phOx-fluorophore conjugates by incubation with low concentrations (<100 nM) of the conjugates. […] Images were recorded at room temperature on a K2 BIO microscope (Technical Instruments) equipped with a 60× PlanApo objective (Nikon, N. A. 1.4), coaxial-confocal attachment, and cooled CCD camera (Photometrics). Dual-excitation ratio images of fluorescein were acquired using 440 and 490 nm excitation filters and a 520 nm long pass emission filter (Chroma). Continuous recordings of the fluorescence time course were obtained on a Nikon Diaphot epifluorescence microscope equipped with a 100× PlanApo objective (Nikon, N. A. 1.4), a photomultiplier using a 530 nm bandpass emission filter and an optical filter changer (Model 10-C, Sutter Instrument Co.) containing 440 and 490 nm excitation filters. Cuvette fluorescence measurements were conducted on an SLM 8000c fluorometer (SLM Aminco). Spectra were recorded with 4 nm slit widths; time courses were acquired with 495 nm excitation and a 510 mm longpass emission filter.
The various sFv targeting constructs and phOx conjugates were studied in CHO cells. […] For quantitative measurement of organelle pH, the free dye was washed out of the bathing solutions.

As to `CO/C1=C\C(C)=C\[C@@H](C)[C@@H](O)[C@@H](C)C/C(C)=C/C=C/[C@H](OC)[C@@H]([C@@H](C)[C@@H](O)[C@H](C)[C@@]2(O)C[C@@H](O)[C@H](C)[C@@H](C(C)C)O2)OC1=O` [bafilomycin A1], the “change of Golgi pH after addition” value in test [1] is listed as “promptly alkalinized”.
In the case of `O=C1OC(c2ccccc2)=NC1=CNCCO` [phOx-ethanolamine], the “effect on phOx-Bodipy staining of Golgi (competition)” value in test [2] is “reversed”.

The record behind these values is patent publication US7045305B1, “Methods and reagents for targeting organic compounds to selected cellular locations” (The Regents of the University of California, priority 1998, dated 2006).
